This is an account of results in PubChem BioAssay AID743307 (Sanford-Burnham Center for Chemical Genomics, 2014).

A word on the IC50: it is the concentration needed to halve the response being measured.

The target of this test is Low molecular weight phosphotyrosine protein phosphatase (Homo sapiens) (UniProt P24666). Nature of the test: LMPTP phosphatase inhibitors, dose response, biochemical, OMFP substrate, fluorescence intensity, set 2 (AID 743307). As to conditions: LMPTP-A enzyme, OMFP fluorogenic substrate.
Sequence of Low molecular weight phosphotyrosine protein phosphatase (Homo sapiens) (P24666 whole entry, looked up): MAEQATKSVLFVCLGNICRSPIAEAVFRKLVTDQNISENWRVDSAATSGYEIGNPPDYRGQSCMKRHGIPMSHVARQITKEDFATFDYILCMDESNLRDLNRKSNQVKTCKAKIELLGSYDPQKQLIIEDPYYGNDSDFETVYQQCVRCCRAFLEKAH

Regarding `COc1ccc(-c2cc(NCCCN3CCCCC3)c3ccccc3n2)cc1`, the 50% inhibitory concentration (IC50) is 1.68 µM.
